Patent publication US20200003759A1, “METHODS FOR IDENTIFYING METAP-2 MODULATORS” (Zafgen, Inc., priority 2017, published 2020)
Where two headings read alike, the source gives them in different places.

What was measured:
p21 = p21 protein level in HUVEC lysate; format: cell-based, human
Protocol: (§1) Cell lysates were stored at −80° C.
(§2) All values obtained were normalized against protein concentration.

[1] = tested on: plasminogen activator inhibitor-1 (PAI-1); assay: PAI-1 protein level in HUVEC lysate; format: cell-based, human
Protocol: as §1, §2

[2] = tested on: von Willebrand factor (vWF); assay: vWF level in HUVEC lysate; format: cell-based, human; details: discrete time intervals and concentrations (FIG. 3)
Protocol: as §1, §2

p53 = p53 protein level in HUVEC lysate; format: cell-based, human; details: discrete time intervals and concentrations (FIG. 4)
Protocol: as §1, §2

[3] = format: in vivo
Protocol: Male beagle dogs 10 to 20 months of age (Marshall BioResources, North Rose, NY) were individually housed at the testing facility. […] […]. […] Body weight and food intake were recorded daily. Blood was collected before each dose and 4 hours after each dose for hematology (e.g., platelet count), coagulation parameters (e.g., thrombin time, antithrombin III), and protein panel analysis (e.g., D-dimer) (Nextcea, Woburn, Mass.).

[4] = cited from earlier work
HUVEC [5] = assay: Inhibition of HUVEC proliferation as a function of drug exposure time (washout assay)
Protocol: (§3) After incubation with drug or vehicle, EC proliferation was analyzed using a DNA dye (CyQUANT®) added to lysed cells to provide a fluorescent signal relative to the amount of DNA, allowing a measure of cell density.
A washout assay protocol is as follows: Day 1: plate cells: Plate cells at 0.3×10^4 cells/well in collagen coated 96-well plates; Incubate cells at 37° C., 5% CO2 in a humidified atmosphere overnight. Day 2: dilute and add MetAP2 inhibitor compounds: Dilute compounds in cell culture medium to the appropriate concentration. Add medium containing compound onto cells. Incubate cells at 37° C., 5% CO2 in a humidified atmosphere for the appropriate timepoint. Washout: After the indicated time, remove medium from the relevant samples and wash twice with PBS. Replace with fresh medium Incubate at 37° C., 5% CO2 in a humidified atmosphere until final incubation time. […] Measure cell proliferation using CyQuant assay.
The cells were incubated for 72 hrs and cell proliferation was measured to assess inhibition. […] Error bars represent the standard error of the mean for each condition (n=8 replicates per test condition pooled from 3 experiments).

thrombomodulin (TM) = tested on: thrombomodulin (TM)
Protocol: For LC-MS/MS sample preparation, cell culture media was removed, cells were washed with 10 mL of Dulbecco's phosphate-buffered saline (DPBS), and 500 μL of T-PER lysis buffer was added. Cell lysates were stored at −80° C. […] For the 4- and 8-hour incubations, cells were maintained by standard culture for the remainder of the 72-hour incubation period. Cell cycle protein levels were assessed using enzyme-linked immunosorbent assays.
HUVEC cells were exposed to compounds at concentrations of 1 nM, 3 nM, 10 nM, and 20 nM. […] The protein assays performed included measurements of total p21, thrombomodulin, total p53, PAI-1, and von Willibrand factor (vWF). All values obtained were normalized against protein concentration.

HUVEC [6] = assay: Inhibition of HUVEC (EC) proliferation, continuous exposure, CyQUANT DNA dye; details: Homo sapiens
Protocol: In vitro studies were conducted in cultured HUVECs (Lonza, Amboise, France). Cells were cultured in endothelial growth medium 2 cell culture media (EGM-2, Lonza, Amboise, France), passaged by seeding at 3×10^3 cells/mL on T175 flasks, and allowed to reach approximately 80% confluence before experiments were conducted. Cells were trypsinized and counted using trypan blue exclusion method using an automated Cedex cell counter.
as §3

[7] = 72 hours of incubation, all concentrations (1, 3, 10, 20 nM)
[8] = dogs, 0.6 mg/kg s.c. Q3D (FIG. 5)
[9] = patients with type 2 diabetes, 26 weeks of treatment
[10] = 10 nM, 2-hour incubation, washed (FIG. 6B)
[11] = exposures as short as one hour (FIG. 1C)
[12] = shorter incubations of 4 or 8 hours
[13] = dogs, 2 mg/kg s.c. Q3D for 10 days

CO[C@@H]1[C@H](OC(=O)/C=C/c2ccc(OCCN(C)C)cc2)CC[C@]2(CO2)[C@H]1[C@@]1(C)O[C@@H]1CC=C(C)C [Beloranib, beloranib]
p21 protein level (p21; [7]): increased p21 | p21 protein level (p21; short 4- or 8-hour incubations, 10 and 20 nM): increased p21 | PAI-1 protein level ([1]; 10 and 20 nM at the earliest timepoint): increased PAI-1 levels | PAI-1 protein level ([1]; all concentrations at 72 hours): increased PAI-1 levels | vWF levels [2]: no effects on vWF levels | p53 protein levels (p53): no effects on p53 protein levels | tolerability ([3]; dogs, 0.6 mg/kg s.c. Q3D): not well tolerated | D-dimer concentrations [3, 8]: increased | antithrombin III [3, 8]: decreased | platelet count [3, 8]: decreased | thrombin time [3, 8]: decreased | hemostasis in toxicology studies ([3]; dogs, 0.6 mg/kg s.c. Q3D, within 2 weeks of drug administration): some animals developed evidence of impaired hemostasis | adverse events ([4]; patients with obesity, PWS, or type 2 diabetes): adverse events (AEs) of venous thromboembolism occurred | reduction in HbA1c [4, 9]: 2.0% | weight loss [4, 9]: 13% | reduction of cell proliferation measured at 72 hours (HUVEC [5]; [10]): approximately 60% | effects on EC proliferation after short exposure (HUVEC [5]; [11]): occurred rapidly | lowest concentration with effects on EC proliferation at short exposure (HUVEC [5]; [11]): 11 × the EC50

CO[C@@H]1[C@H](OC(=O)N2CC(CCN3CCOCC3)C2)CC[C@]2(CO2)[C@H]1[C@@]1(C)O[C@@H]1CC=C(C)C [Compound A]
p21 protein level (p21; [7]): increased p21 | p21 protein level (p21; [12]): no meaningful changes | TM protein level (thrombomodulin (TM); [7]): reduced TM protein levels | TM protein level (thrombomodulin (TM); [12]): no meaningful changes | PAI-1 protein level ([1]; any of the concentrations or time points): no effect on PAI-1 protein levels | vWF levels [2]: no effects on vWF levels | p53 protein levels (p53): no effects on p53 protein levels | tolerability ([3]; dog, in vivo, sc, 2 mg/kg): well tolerated | body weight [3, 13]: Weight loss was observed | food intake [3, 13]: unchanged | changes in clinical observations, hematology (platelet count), D-dimer, thrombin time, antithrombin III ([3]; dogs, 2 mg/kg s.c. Q3D for 10 days (FIG. 5)): no adverse changes | survival ([3]; dogs, 2 mg/kg s.c. Q3D, scheduled dosing period): all animals survived | EC50 (HUVEC [6]; 72 h, read-out: concentration that inhibited EC proliferation by 50% (EC50)): 0.24 nM | EC50 (HUVEC [6]; read-out: HUVEC Proliferation (EC50, nM)): 0.2 nM | effect on cell proliferation measured at 72 hours (HUVEC [5]; [10]): no effect on cell proliferation | effect on cell proliferation after short-term exposure (HUVEC [5]; 4 hours or less, concentrations up to 50× the EC50): no effect on cell proliferation | continuous exposure time needed for robust inhibition of EC proliferation (HUVEC [5]; FIG. 1B): ≥ 48 h | % inhibition 6XIC90 4 h exposure (HUVEC [5]; HUVEC proliferation, 6XIC90, 4 h exposure): 5.6% | % inhibition 6XIC90 24 h exposure (HUVEC [5]; HUVEC proliferation, 6XIC90, 24 h exposure): 41% | % inhibition 20XIC90 4 h exposure (HUVEC [5]; HUVEC proliferation, 20XIC90, 4 h exposure): 12.4% | % inhibition 20XIC90 24 h exposure (HUVEC [5]; HUVEC proliferation, 20XIC90, 24 h exposure): 40%
